Like-named read-outs stand apart in the source and are kept apart here. Marks after values point to notes of the source that are not given here.
Legend:
male C57BL/6NHsd mice [1] = details: mouse, in vivo
DOR = details: cited from earlier work
male C57BL/6NHsd mice [2] = details: mouse, in vivo; remark: listed apart in the source
KOR [3] = assay: Literature binding affinity at KOR; details: from literature Ki values
MOR [4] = assay: Literature binding affinity at MOR; details: from literature Ki values
KOR [5] = details: cited from earlier work
MOR [6] = details: cited from earlier work
male C57BL/6NHsd mice [7] = details: mouse, in vivo; remark: listed apart in the source
hMOR [8] = biological target: T1, hMOR (Homo sapiens, UniProt P35372); assay: GTPγS functional assay, MOR; type: biochemical
T1 sequence (P35372 whole entry): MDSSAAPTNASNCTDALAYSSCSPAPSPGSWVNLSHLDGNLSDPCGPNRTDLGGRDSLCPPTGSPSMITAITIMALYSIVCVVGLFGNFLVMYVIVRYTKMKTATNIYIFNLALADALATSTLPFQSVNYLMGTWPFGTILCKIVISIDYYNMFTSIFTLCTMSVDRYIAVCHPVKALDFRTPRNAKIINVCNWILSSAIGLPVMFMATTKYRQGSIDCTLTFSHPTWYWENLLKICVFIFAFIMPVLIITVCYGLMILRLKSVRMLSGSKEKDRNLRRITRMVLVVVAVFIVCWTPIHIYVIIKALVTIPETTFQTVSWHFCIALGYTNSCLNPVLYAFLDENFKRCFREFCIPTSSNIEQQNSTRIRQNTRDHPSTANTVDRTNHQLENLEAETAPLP

hKOR [9] = biological target: T2, hKOR (Homo sapiens, UniProt P41145); assay: biochemical; type: binding
T2 sequence (P41145 whole entry): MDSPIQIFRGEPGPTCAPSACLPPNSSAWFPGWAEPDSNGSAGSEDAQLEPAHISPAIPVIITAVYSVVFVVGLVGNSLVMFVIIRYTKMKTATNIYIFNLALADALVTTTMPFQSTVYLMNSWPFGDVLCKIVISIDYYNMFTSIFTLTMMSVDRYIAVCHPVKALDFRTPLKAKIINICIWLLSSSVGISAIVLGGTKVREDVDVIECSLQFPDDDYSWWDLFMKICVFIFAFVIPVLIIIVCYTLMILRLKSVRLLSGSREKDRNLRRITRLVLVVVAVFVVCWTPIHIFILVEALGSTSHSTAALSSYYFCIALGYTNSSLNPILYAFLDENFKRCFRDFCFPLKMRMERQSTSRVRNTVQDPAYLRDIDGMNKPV

hKOR [10] = biological target: T2, hKOR; assay: biochemical; type: biochemical
hMOR [11] = biological target: T1, hMOR; assay: biochemical; type: binding
hDOR [12] = biological target: T3, hDOR (Homo sapiens, UniProt P41143); assay: GTPγS functional assay, DOR; type: biochemical
T3 sequence (P41143 whole entry): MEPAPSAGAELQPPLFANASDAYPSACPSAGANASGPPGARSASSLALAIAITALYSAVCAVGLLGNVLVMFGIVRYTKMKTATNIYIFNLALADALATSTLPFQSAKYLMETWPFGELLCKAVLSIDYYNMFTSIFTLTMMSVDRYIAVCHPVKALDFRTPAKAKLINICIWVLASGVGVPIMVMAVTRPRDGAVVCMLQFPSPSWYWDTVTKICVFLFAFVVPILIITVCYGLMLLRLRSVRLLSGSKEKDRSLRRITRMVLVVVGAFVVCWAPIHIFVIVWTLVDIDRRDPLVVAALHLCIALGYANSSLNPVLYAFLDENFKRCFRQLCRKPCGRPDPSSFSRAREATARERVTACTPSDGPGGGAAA

hDOR [13] = biological target: T3, hDOR; assay: Competitive radioligand binding assay, DOR

SMILES: COC(=O)[C@@H]1C[C@H](OC(=O)c2ccccc2)C(=O)[C@H]2[C@@]1(C)CC[C@H]1C(=O)O[C@H](c3ccoc3)C[C@]21C [Herkinorin]
- latency to tail withdrawal compared to vehicle (male C57BL/6NHsd mice [1]): Neither salvinorin A, herkinorin, nor compounds 2 or 10 demonstrated significant antinociception
- Kd (DOR; read-out: KD [nM] (DOR), Literature values): 1170 ± 60 nM
- Ki (DOR; read-out: Ki (DOR)): 1170 nM
- time spent in the open arms compared to vehicle (male C57BL/6NHsd mice [2]): notable increase in open arm time, but this was not statistically significant
- fold lower affinity for KOR compared to salvinorin A (KOR [3]): 47 fold
- fold higher affinity for MOR compared to salvinorin A (MOR [4]): ≥ 83 fold
- Kd (KOR [5]; read-out: KD [nM] (KOR)): 90 ± 2 nM
- Ki (KOR [5]; read-out: Ki (KOR)): 90 nM
- Kd (MOR [6]; read-out: KD [nM] (MOR)): 12 ± 1 nM
- Ki (MOR [6]; read-out: Ki (MOR)): 12 nM
- latency to hind paw lick or flutter compared to vehicle (male C57BL/6NHsd mice [7]): Neither salivinorin A, herkinorin, nor compound 10 were observed to significantly influence the latency to paw response

SMILES: COC(=O)[C@@H]1C[C@H](OC(=O)c2cc3cccc(F)c3[nH]2)C(=O)[C@H]2[C@@]1(C)CC[C@H]1C(=O)O[C@H](c3ccoc3)C[C@]21C [Compound 10, (2S,4aR,6aR,7R,9S,10aS,10bR)-2-(furan-3-yl)-7-(methoxycarbonyl)-6a,10b-dimethyl-4,10-dioxododecahydro-2H-benzo[f]isochromen-9-yl 7-fluoro-1H-indole-2-carboxylate]
- latency to tail withdrawal compared to vehicle (male C57BL/6NHsd mice [1]): Neither salvinorin A, herkinorin, nor compounds 2 or 10 demonstrated significant antinociception
- EC50 (hMOR [8]): 132 nM
- Kd (hKOR [9]): 53.8 nM
- fold preference towards KOR (binding affinity, KOR vs MOR) (hKOR [9]): equal binding affinity towards KOR and MOR
- EC50 (hKOR [10]): 36.5 nM
- Full or partial agonist (KOR) (hKOR [10]): 36.5 (13.6–98.2)^[d]
- fold higher potency at KOR (vs MOR) (hKOR [10]): ~ 4 fold
- distance traveled in the maze compared to vehicle (male C57BL/6NHsd mice [2]): reduction in the total distance traveled
- time spent in the open arms compared to vehicle (male C57BL/6NHsd mice [2]): Neither herkinorin nor compound 10 significantly influenced anxiety-like behavior
- Kd (hMOR [11]): 58.4 nM
- latency to hind paw lick or flutter compared to vehicle (male C57BL/6NHsd mice [7]): Neither salivinorin A, herkinorin, nor compound 10 were observed to significantly influence the latency to paw response

SMILES: CN1CC[C@]23c4c5ccc(O)c4O[C@H]2[C@@H](O)C=C[C@H]3[C@H]1C5 [Morphine, reference compound]
- latency to tail withdrawal compared to vehicle (male C57BL/6NHsd mice [1]): significantly increased the latency to tail withdrawal
- latency to hind paw lick or flutter compared to vehicle (male C57BL/6NHsd mice [7]): significant increase in the latency to paw response

SMILES: COC(=O)[C@@H]1C[C@H](OC(=O)c2cc3ccccn3c2)C(=O)[C@H]2[C@@]1(C)CC[C@H]1C(=O)O[C@H](c3ccoc3)C[C@]21C [Compound 12, (2S,4aR,6aR,7R,9S,10aS,10bR)-2-(furan-3-yl)-7-(methoxycarbonyl)-6a,10b-dimethyl-4,10-dioxododecahydro-2H-benzo[f]isochromen-9-yl indolizine-2-carboxylate]
- EC50 (hMOR [8]): 200 nM
- EC50 (hDOR [12]): 742 nM
- Kd (hKOR [9]): 18.4 nM
- EC50 (hKOR [10]): 1560 nM
- Full or partial agonist (KOR) (hKOR [10]): 1560 (213–11500)^[c]
- Kd (hMOR [11]): 1390 nM
- Kd (hDOR [13]): 480 nM

SMILES: COC(=O)[C@@H]1C[C@H](OC(=O)[C@@H]2Cc3ccccc3N2)C(=O)[C@H]2[C@@]1(C)CC[C@H]1C(=O)O[C@H](c3ccoc3)C[C@]21C [Compound 14, (2S,4aR,6aR,7R,9S,10aS,10bR)-2-(furan-3-yl)-7-(methoxycarbonyl)-6a,10b-dimethyl-4,10-dioxododecahydro-2H-benzo[f]isochromen-9-yl (S)-indoline-2-carboxylate]
- EC50 (hMOR [8]): > 10000 nM
- Kd (hKOR [9]): 32.1 nM
- fold preference towards KOR (binding affinity, KOR vs MOR) (hKOR [9]): ~ 2 fold
- EC50 (hKOR [10]): 361 nM
- Full or partial agonist (KOR) (hKOR [10]): 361 (216–602)^[d]
- Kd (hMOR [11]): 77.9 nM

SMILES: COC(=O)[C@@H]1C[C@H](OC(=O)C2=Cc3ccccc3C2)C(=O)[C@H]2[C@@]1(C)CC[C@H]1C(=O)O[C@H](c3ccoc3)C[C@]21C [Compound 2, Methyl-(2S,4aR,6aR,7R,9S,10aS,10bR)-9-((1H-indene-2-carbonyl)oxy)-2-(furan-3-yl)-6a,10b-dimethyl-4,10-dioxododecahydro-2H-benzo[f]isochromene-7-carboxylate]
- latency to tail withdrawal compared to vehicle (male C57BL/6NHsd mice [1]): Neither salvinorin A, herkinorin, nor compounds 2 or 10 demonstrated significant antinociception
- fold higher potency at MOR (vs KOR) (hMOR [8]; from GTPγS EC50 values): 17 fold
- EC50 (hDOR [12]): 2350 nM
- Kd (hKOR [9]): 49.7 nM
- fold preference towards KOR (binding affinity, KOR vs MOR) (hKOR [9]): 11 fold
- Full or partial agonist (KOR) (hKOR [10]): 853 (456–1600)^[d]
- distance traveled in the maze compared to vehicle (male C57BL/6NHsd mice [2]; male, C57BL/6NHsd): neither salvinorin A, nor compound 2, altered the distance
- time spent in the open arms compared to vehicle (male C57BL/6NHsd mice [2]): significantly increased the amount of time spent on the open arms of the maze
- Kd (hMOR [11]): 538 nM
- Kd (hDOR [13]): 714 nM
- latency to hind paw lick or flutter compared to vehicle (male C57BL/6NHsd mice [7]): significant increase in the latency to paw response

SMILES: COC(=O)[C@@H]1C[C@H](OC(=O)c2cc3c(F)cccc3[nH]2)C(=O)[C@H]2[C@@]1(C)CC[C@H]1C(=O)O[C@H](c3ccoc3)C[C@]21C [Compound 7, (2S,4aR,6aR,7R,9S,10aS,10bR)-2-(furan-3-yl)-7-(methoxycarbonyl)-6a,10b-dimethyl-4,10-dioxododecahydro-2H-benzo[f]isochromen-9-yl 4-fluoro-1H-indole-2-carboxylate]
- EC50 (hMOR [8]): 211 nM
- Kd (hKOR [9]): 57.3 nM
- EC50 (hKOR [10]): 877 nM
- Full or partial agonist (KOR) (hKOR [10]): 877 (564–1360)^[d]
- Kd (hMOR [11]): 13.1 nM

SMILES: COC(=O)[C@@H]1C[C@H](OC(=O)c2nc3ccccc3o2)C(=O)[C@H]2[C@@]1(C)CC[C@H]1C(=O)O[C@H](c3ccoc3)C[C@]21C [Compound 4, (2S,4aR,6aR,7R,9S,10aS,10bR)-2-(furan-3-yl)-7-(methoxycarbonyl)-6a,10b-dimethyl-4,10-dioxododecahydro-2H-benzo[f]isochromen-9-yl benzo[d]oxazole-2-carboxylate]
- binding affinity towards KOR, in words (hKOR [9]): exhibited no affinity to any of the opioid receptors
- binding affinity towards MOR, in words (hMOR [11]): exhibited no affinity to any of the opioid receptors
- binding affinity towards DOR, in words (hDOR [13]): exhibited no affinity to any of the opioid receptors

SMILES: COC(=O)[C@@H]1C[C@H](OC(=O)C2Cc3ccccc3C2)C(=O)[C@H]2[C@@]1(C)CC[C@H]1C(=O)O[C@H](c3ccoc3)C[C@]21C [Compound 3, Methyl-(2S,4aR,6aR,7R,9S,10aS,10bR)-9-((2,3-dihydro-1H-indene-2-carbonyl)oxy)-2-(furan-3-yl)-6a,10b-dimethyl-4,10-dioxododecahydro-2H-benzo[f]isochromene-7-carboxylate]
- EC50 (hMOR [8]): > 10000 nM
- Kd (hKOR [9]): 1270 nM
- EC50 (hKOR [10]): 3000 nM
- Full or partial agonist (KOR) (hKOR [10]): 3000 (409–22000)^[d]
- Kd (hMOR [11]): 3020 nM

— PMC9015904 (ChemMedChem, 2022)
